Experimental data taken from a melting point compilation (Tetko et al.; mined from patent text by program, amines drawn as free bases though some values may be those of a salt).

SMILES	melting point
COc1ccc(-c2ccc(-c3ccc(F)cc3)nc2-c2ccc(OC)cc2)cc1	118 to 120 °C
CC(C)Oc1cc(-n2nc(C(F)F)n(C)c2=O)c(Cl)cc1Cl	95 to 97 °C
Cc1nc(-c2cccnc2)sc1-c1ccnc(Nc2ccc3c(c2)OCO3)n1	187 to 188 °C
CCCCc1nn(CCC)c(C(=O)O)c1Cc1ccc(C2(C(=O)O)CC=CC2)s1	121 to 122 °C
COc1ccc(-c2nc(NC(=O)c3cccnc3)sc2-c2ccnc(NC(=O)c3cccnc3)c2)cc1	229 to 232 °C
c1cc(C2=NOC(C3CC3)(N3CCCC3)C2)ccn1 (stereo not drawn)	80 to 85 °C
CC(C)CCCOc1c(-c2ccc(S(C)(=O)=O)cc2)cnn(-c2cccc(Cl)c2)c1=O	139 to 140 °C
Oc1cc2c(cc1O)-c1ccccc1C2	155 to 156 °C
CC1Cc2cc3c(cc2C(c2ccc([N+](=O)[O-])cc2)=NN1c1nccs1)OCO3 (stereo not drawn)	145 to 150 °C
CS(=O)(=O)N1CCS(=O)c2cccc(Cl)c2C1 (stereo not drawn)	167 to 169 °C
Clc1ccc2[nH]nc(N3CCNCC3)c2c1	60 to 62 °C
O=C1Cc2cc3c(cc2C(c2ccc(F)cc2)=NN1)OCO3	205 to 207 °C
COc1ccc(-n2nc(C(F)(F)F)cc2-c2ccc(S(C)(=O)=O)cc2)cc1Br	164 to 166 °C
O=C1C(=O)c2c(nc3ccccn23)-c2cc([N+](=O)[O-])ccc21	> 300 °C
CCOC(=O)CCc1ccc(CCNS(=O)(=O)CCc2ccc(Cl)cc2)cc1	77 to 78 °C
Nc1cc(N)c(-c2ccc([N+](=O)[O-])cc2-c2cccc(Cl)c2Cl)cn1	237 to 239 °C
CONC(=O)c1cc(OC)cc(Oc2cccc(C(F)(F)F)c2)n1	91 to 92 °C
CC1(C)NC(SCc2ccccc2N)=NC1=S	103 to 104 °C
COc1cc2c(cc1Br)CCC2=O	149 to 151 °C
CCOC(=O)CCc1nc2cc3c(cc2[nH]1)NC(=O)C3(C)C	194 to 196 °C
Cc1cc(C2=C(C=CC3CC(O)CC(=O)O3)C(C)(C)CC(O)C2)ccc1F (stereo not drawn)	77 to 79 °C

SMILES	melting point
Cn1ccnc1SCC(=O)C12CC3CC(CC(C3)C1)C2	65 to 69 °C
CCCCC(C(=O)OCC)S(=O)(=O)c1ccc(OC)cc1 (stereo not drawn)	62 °C
COC(Cn1cncn1)(c1ccc(Cl)cc1)C(C)(C)C1CC1 (stereo not drawn)	87 to 89 °C
CCOC(=O)c1cnc2onc(C)c2c1N(C)S(=O)(=O)c1ccc(Oc2ccncc2)cc1	155 to 157 °C
CCCCC1=NC2(CCCC2)C(=O)N1Cc1ccc(-c2ccccc2S(=O)(=O)Nc2noc(C)c2C)c(COCC)c1	148 °C
O=C(O)c1cn(-c2cc([N+](=O)[O-])c(F)cc2F)c2c(F)c(F)c(F)cc2c1=O	245 to 255 °C
Cc1cnc2c(c1)CCCC2=NO	188 °C
Cc1cccc(Oc2c[nH]c(=O)[nH]c2=O)c1	291 to 295 °C
CCC(O)(CC)c1ccc(-c2cccc(COc3ccc(CO)c(CO)c3)c2)c(C)c1	87 °C
CCn1ncnc1COc1nn2c(-c3ccccc3F)nncc2c1-c1ccccc1F	164 °C
CCCCCCc1cnn(-c2ccccn2)c1O	37 to 38 °C
COCCOCCOCCOCCOc1ccc(N)cc1	42 to 44 °C
Nc1ccc2c(c1)C(=O)CCO2	136 to 137 °C
CCN(CCCCCCN)c1ccc2c(=O)[nH][nH]c(=O)c2c1	170 °C
CCOC(=O)C(=CN(C)C)C(=O)c1cc(F)c(Cl)cc1Cl	94 to 95 °C
O=C1N(Cc2ccc(C(F)(F)F)o2)c2cccc(-c3cncnc3)c2C12COc1cc3c(cc12)CCO3 (stereo not drawn)	263 to 266 °C
CC1=CC(=O)C(C(C)C)=C(CCNC(=O)C(F)(F)F)C1=O	94 to 95 °C
Nc1ncc(Sc2cccnc2)s1	140 to 142 °C
COc1ccccc1Oc1c(NS(=O)(=O)c2ccc(C(C)(C)C)cc2)nc(SC)nc1OCCOc1ncc(Br)cn1	117 to 121 °C
CCN(CC)CCOc1ccc(CNc2ncc3c(n2)N(C)C(=O)N(c2c(Cl)cccc2Cl)C3)cc1	137 to 138 °C
CCOC(=O)c1nc(N)sc1-c1cn2cc(C)ccc2n1	268 to 271 °C

SMILES	melting point
Cc1nc(Cl)c2c(n1)N(C)C(=O)CO2	142 to 143 °C
CCOC(=O)c1cc2cc(C#N)ccc2[nH]1	181 to 182 °C
CCC(C)(C)NC(Nc1cc(Cl)cc(Cl)c1)=C(C#N)S(=O)(=O)c1ccc(Cl)cc1	189 to 192 °C
COc1ccc2c(c1Br)C(=O)C(=O)N2	250 to 251 °C
CC1(C(F)(F)F)C(=O)NC(=O)NC1=O	205 to 206 °C
CC(C)(C)NCC(O)COc1ccc2c(=O)cc(-c3cc(OCc4ccccc4)cc(OCc4ccccc4)c3)oc2c1 (stereo not drawn)	170 to 171 °C
CC(=O)OC(C)c1ccc2occ(C#N)c(=O)c2c1 (stereo not drawn)	148 to 149 °C
O=S1(=O)NCCOc2ccc(Br)cc21	129 °C
C=CCNC(=O)Nc1nc2nc(NCCCN3CCN(C)CC3)ncc2cc1-c1c(Cl)cccc1Cl	104 to 108 °C
c1nc(SCC2CCCC2)n[nH]1	48 to 55 °C
CC(C)(O)Cn1c(CONS(C)(=O)=O)nc2c(N)nc3ccccc3c21	232 to 234 °C
CCC1=C(Cl)C(=O)c2ccccc2C1=O	109 to 110 °C
Cc1nc(-n2cnn(Cc3ccc(F)cc3)c2=O)sc1C(=O)NCc1ncco1	152 to 153 °C
CC(=O)SC[C@H](NC(=O)OC(C)(C)C)C(=O)NC(CS)C(C)=O (stereo partly drawn)	111 to 113 °C
Cc1noc(NS(=O)(=O)c2cccc3c(N(C)C)cccc23)c1Br	87 to 89 °C
NNC(=S)Cc1ccc(F)cc1	150 to 152 °C
COC1=c2ccccc2=c2ccc(Cl)cc2=C(c2ccccc2F)N1	136 to 138 °C
O=c1c2c[nH]c3c(c-2nn1-c1ccc(Cl)cc1)CCC3	> 350 °C
O=C1OC(=O)c2cc3occc3c3cccc1c23	160 to 165 °C

Next, values leading:

melting point	SMILES
131 to 133 °C	CN(C)CC1CCCCN1CCCNC(=O)N1c2ccccc2NC(=O)c2ccccc21 (stereo not drawn)
119 to 133 °C	CC(C)(C)OC(=O)N(Cc1ccc(C2CCCCC2)cc1)c1nc(Oc2ccc(F)cc2)c2ncn(CC(=O)O)c2n1
152 to 155 °C	O=C([C@H]1CCCN1C(=O)Nc1ccc2ccccc2c1)N1CCc2c([nH]c3ccccc23)C1
138 °C	Oc1cccc(C2CCCN2Cc2ccncc2)c1 (stereo not drawn)
87 to 89 °C	CCCCS(=O)(=O)N(C(=O)OC(C)(C)C)c1cc(OC[C@@H]2CO2)ccc1OCc1ccccc1
118 to 120 °C	Fc1ccc(C(Cl)=NNc2ccccc2)cc1
164 to 166 °C	NC(=O)C1CCc2c(C(=O)c3ccccc3)cccc21 (stereo not drawn)
80 to 83 °C	N=C(NC(=O)c1ccc2ccccc2c1)c1ccc(N2CC(CN3CCN(CCC(=O)O)CC3)OC2=O)cc1 (stereo not drawn)
115 to 117 °C	Cc1ccc(NC(=O)C(=O)N2CCC(Cc3ccccc3)CC2)cc1
70 to 71 °C	BrCOc1cccc(OCc2ccccc2)c1
164 to 165 °C	CC(=O)NC[C@H]1CN(c2ccc(C3=CCCN(C(=O)OC(C)(C)C)CC3)c(F)c2)C(=O)O1
177 to 178 °C	O=C(O)c1ccc(NCc2ccc(Cl)s2)cc1
164 to 165 °C	Cc1n[nH]c(-c2ccncc2)c1-c1ccccc1
98.6 to 99.3 °C	COc1ccc(-c2cc(C(=O)NCc3ccccn3)c(=O)n(CC3CC3)n2)cc1
174 °C	O=C(C=CCN1CCN(CC(=O)OCc2ccccc2)CC1)Nc1cc2c(Nc3ccc(F)c(Cl)c3)ncnc2cc1OCC1CC1
126 to 128 °C	O=C(C=CCc1ccccc1)NCCCCCC(=O)NO
163 to 164 °C	CCOC(=O)CCc1cccc(-c2c(CC(=O)Nc3ccc(F)cc3C(F)(F)F)c(=O)oc3ccccc23)c1
240 to 242 °C	O=C1c2cccc3cccc(c23)C(=O)N1C1CCC(O)CC1 (stereo not drawn)
77 to 79 °C	CC(C)(C)NC[C@H](Cc1ccc(OCc2ccccc2)cc1)NC(=O)OC(C)(C)C

melting point	SMILES
77.7 °C	CC(C)(C)OC(=O)N1CCC(NCc2cccc(NC(=O)c3ccc(F)cc3)n2)CC1
207 to 209 °C	CCCCN1CCC(n2c(=O)[nH]c3ccccc32)CC1
194 to 195 °C	COc1ccc(CCN2CCC(NC(=O)c3ccccc3)CC2)cc1OC
184 to 185 °C	CCOC(=O)c1cnn(-c2ccccc2)c1NC(=O)Nc1ccccc1
100 to 102 °C	O=C(CCCN1C(=O)c2ccccc2C1=O)N1CCC(C2c3ncc(Br)cc3CCc3cc(Cl)cc(Br)c32)CC1 (single isomer, unassigned; (+))
160 to 161 °C	O=C(O)CCSC(SCCC(=O)O)c1cccc(CCc2ccc3ccc(Cl)cc3n2)c1
180 °C	O=C(c1cccnc1)c1cc(-c2ccccc2)c(N2CCOCC2)s1
174 to 176 °C	CCCCOCCOCCOc1ccc(-c2ccc(C(=O)O)cc2)cc1
107 to 108 °C	CCNCC(=O)Nc1c(Cc2nccc3ccccc23)ccc(OC)c1OC
154 to 156 °C	COc1cc(OC)c(C(=O)CCCCCl)cc1NC(=O)Nc1ccc(C(F)(F)F)cc1
89 to 95 °C	COc1cc(OC)c(NC(=O)[C@H](Cc2ccc(OCc3ccccc3)cc2)NC(=O)OC(C)(C)C)c(OC)c1
60 °C	COC(=O)Cc1cccc(CNC(=O)C2Cc3ccccc3N2S(=O)(=O)c2ccc(-c3cccc(C(F)(F)F)c3)cc2)c1 (stereo not drawn)
60 °C	COC(=O)[C@@H]1CSCN1S(=O)(=O)c1ccc(Cl)c(COc2cccc3c(-n4ccnc4)cc(C)nc23)c1Cl
85 to 87 °C	CCCC(=O)C(=CNc1ccc(OC(=O)c2ccccc2)cc1OC)C(=O)OCC
155 °C	CCCCc1cn(Cc2ccc(-c3ccccc3C(=O)O)cc2)c2cccc(SC)c2c1=O
184 to 185 °C	COc1ccc(CCc2ccc(NC(=O)C(=O)C3=C(O)c4ccccc4SC3)cc2)cc1OC
145 °C	OC(c1nccn1CCc1ccccc1)C1CCNCC1 (stereo not drawn)
192 to 193 °C	COc1cc(COc2cc(C(=O)O)n(-c3ccccc3)n2)ccc1OCc1nc(-c2ccccc2)oc1C
